In the supplement of paper PMC10307832:

How the values were obtained:
Assay in all cases: relative viability (nuclei count vs DMSO), 5 days (fraction); higher = more cells survive
[1] = compound: COC1=CC=C(C=C1)CN2C=CC3=C2C=C(C=C3)C(=O)NO + CS(=O)(=O)CCNCc1ccc(-c2ccc3ncnc(Nc4ccc(OCc5cccc(F)c5)c(Cl)c4)c3c2)o1 [Lapatinib] (partner 2 µM)
Outline: (§1)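 Medians of duplicate plates are given as relative viability. That measure is the nuclei count in treated wells divided by the count in vehicle wells. Counts were taken on 4× images of lung cancer cell lines in 1536-well plates, 5 days after pin-tool dosing the day after seeding with one drug alone or a fixed anchor-drug dose plus five library-drug doses (not always all listed) in √10 steps.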

Veliparib + Alpelisib = compound: C[C@]1(c2nc3c(C(N)=O)cccc3[nH]2)CCCN1 [Veliparib] + Cc1nc(NC(=O)N2CCC[C@H]2C(N)=O)sc1-c1ccnc(C(C)(C)C(F)(F)F)c1 [Alpelisib] (partner 2 µM)
Outline: as §1

Veliparib + Lapatinib = compound: C[C@]1(c2nc3c(C(N)=O)cccc3[nH]2)CCCN1 [Veliparib] + CS(=O)(=O)CCNCc1ccc(-c2ccc3ncnc(Nc4ccc(OCc5cccc(F)c5)c(Cl)c4)c3c2)o1 [Lapatinib] (partner 2 µM)
Outline: as §1

[2] = compound: COC1=CC=C(C=C1)CN2C=CC3=C2C=C(C=C3)C(=O)NO + CS(=O)(=O)N1CCN(Cc2cc3nc(-c4cccc5[nH]ncc45)nc(N4CCOCC4)c3s2)CC1 [Pictilisib] (partner 1 µM)
Outline: as §1

Row | Cell Line | relative viability ([1]; first compound 0.08 µM) | relative viability ([1]; first compound 0.253 µM) | relative viability ([1]; first compound 0.8 µM) | relative viability ([1]; first compound 2.53 µM) | relative viability ([1]; first compound 8 µM) | relative viability (Veliparib + Alpelisib; first compound 0.02 µM) | relative viability (Veliparib + Alpelisib; first compound 0.06325 µM) | relative viability (Veliparib + Alpelisib; first compound 0.2 µM) | relative viability (Veliparib + Alpelisib; first compound 0.6325 µM) | relative viability (Veliparib + Alpelisib; first compound 2 µM) | relative viability (Veliparib + Lapatinib; first compound 0.02 µM) | relative viability (Veliparib + Lapatinib; first compound 0.06325 µM) | relative viability (Veliparib + Lapatinib; first compound 0.2 µM) | relative viability (Veliparib + Lapatinib; first compound 0.6325 µM) | relative viability (Veliparib + Lapatinib; first compound 2 µM) | relative viability ([2]; first compound 0.253 µM) | relative viability ([2]; first compound 0.8 µM) | relative viability ([2]; first compound 2.53 µM) | relative viability ([2]; first compound 8 µM) | relative viability ([2]; first compound 0.08 µM)
1 | NCI-H647 | 0.626 | 1.07 | 1.04 | 1.1 | 0.97 | 1.38 | 1.07 | 1.42 | 1.22 | 1.11 | 1.24 | 0.986 | 0.973 | 1 | 1.16 | 0.42 | 0.523 | 0.373 | 0.308 | –
2 | NCI-H1299 | 0.959 | 0.979 | 0.969 | 0.934 | 0.923 | 1.04 | 0.992 | 1.03 | 0.985 | 1.05 | 0.972 | 0.944 | 0.951 | 0.956 | 0.978 | 1.03 | 0.77 | 0.658 | 0.593 | 0.834
3 | NCI-H358 | – | 0.472 | 0.437 | 0.394 | 0.397 | – | 0.763 | 0.953 | 0.775 | 1.01 | – | 0.464 | 0.503 | 0.393 | 0.452 | 0.429 | 0.422 | 0.337 | 0.296 | –
4 | LK-2 | – | 0.909 | 0.932 | 0.955 | 0.82 | – | 1.01 | 1.38 | 0.996 | 1.1 | 0.637 | 0.814 | 1.11 | 0.877 | 0.643 | 0.524 | 0.598 | 0.507 | 0.488 | –
5 | NCI-H460 | 0.118 | 1.04 | 0.953 | 0.907 | 0.931 | – | 0.342 | 0.539 | 0.347 | 0.441 | – | 0.866 | 0.909 | 0.904 | 1.01 | 0.248 | 0.405 | 0.377 | 0.348 | 0.0712
6 | SK-LU-1 | 0.711 | 0.781 | 1.04 | 0.905 | 0.81 | 1.12 | 0.943 | 1.12 | 0.927 | 1.19 | 0.868 | 0.835 | 0.966 | 0.823 | 1.02 | 0.586 | 0.613 | 0.517 | 0.505 | 0.468
7 | LU99A | – | 0.92 | 0.961 | 0.957 | 0.891 | 0.504 | 0.459 | 0.544 | 0.509 | 0.569 | 1.03 | 0.926 | 0.585 | 0.859 | 0.87 | 0.338 | 0.355 | 0.295 | 0.283 | –
8 | UMC-11 | 0.374 | 1.14 | 1.05 | 1.02 | 0.916 | 1.01 | 0.941 | 1.14 | 0.947 | 0.972 | 0.893 | 1 | 0.841 | 1.09 | 1.07 | 0.82 | 0.864 | 0.756 | 0.748 | 0.28
9 | PC-3 [JPC-3] | 0.423 | 0.486 | 0.493 | 0.49 | 0.478 | 1.1 | 0.981 | 0.959 | 1.03 | 0.993 | 0.422 | 0.397 | 0.454 | 0.476 | 0.477 | 0.713 | 0.747 | 0.805 | 0.718 | 0.781
10 | A-427 | – | 1.07 | 1.1 | 0.995 | 0.909 | 1.1 | 1.01 | 1.06 | 1.06 | 1.14 | 1.11 | 1 | 0.994 | 1.04 | 0.802 | 0.743 | 0.787 | 0.643 | 0.606 | –
11 | HCC-366 | – | 0.992 | 1.06 | 1.04 | 1.07 | 0.452 | 0.234 | 0.365 | 0.384 | 0.411 | 1.06 | 0.897 | 0.929 | 0.974 | 1.09 | 0.165 | 0.137 | 0.136 | 0.15 | 0.139
12 | LCLC-97TM1 | – | 0.872 | 1.26 | 0.911 | 0.806 | 0.263 | 0.271 | 0.258 | – | 0.232 | 0.734 | 0.828 | 1.45 | – | 1.22 | 0.283 | 0.205 | 0.227 | 0.123 | –
13 | NCI-H2170 | 0.187 | 0.282 | 0.26 | 0.27 | 0.245 | 0.826 | 0.806 | 0.931 | 0.786 | 0.764 | 0.259 | 0.245 | 0.268 | 0.299 | 0.285 | 0.393 | 0.347 | 0.27 | 0.279 | 0.271
14 | NCI-H2085 | 0.336 | 0.817 | 0.798 | 0.81 | 0.708 | 1.07 | 0.977 | 0.843 | 0.875 | 0.966 | 0.473 | 0.684 | 0.677 | 0.782 | 0.637 | 0.491 | 0.53 | 0.492 | 0.426 | 0.44
15 | NCI-H1666 | 0.428 | 0.778 | 0.821 | 0.649 | 0.716 | 1.04 | 0.709 | 0.857 | 0.829 | 1 | 0.606 | 0.348 | 0.675 | 0.744 | 0.662 | 0.49 | 0.47 | 0.525 | 0.525 | 0.523
16 | HCC-78 | – | 0.706 | 0.731 | 0.715 | 0.733 | 0.455 | 0.406 | 0.387 | 0.36 | 0.322 | 0.762 | 0.837 | 0.652 | 0.849 | 0.566 | 0.192 | 0.199 | 0.213 | 0.216 | –
17 | 201T | 1 | 1.03 | 1.06 | 1.05 | 0.969 | 1.02 | 1.02 | 1.02 | 1.01 | 0.973 | 1 | 1.03 | 1.04 | 1.05 | 0.995 | 0.716 | 0.752 | 0.725 | 0.683 | 0.687
